Reference: US20190256499A1, “SUBSTITUTED QUINOXALINE DERIVATIVES AS INHIBITORS OF PFKFB” (priority 2016, published 2019)
≈ marks a conversion by molar mass, not a printed value.

Legend:
[1] = Solubility PBS (thermodynamic solubility, shake flask method); assay type: physicochemical; details: phosphate buffer (PBS), aqueous buffer, thermodynamic from solid, PBS pH 7.4, 24 hours at 37° C.
Procedure: The method involves dissolving the test compound in a solvent at a constant temperature followed by HPLC determination of the concentration of the solute in the solution, which must not contain any undissolved particles.
Phosphate Buffer pH 7.4 is prepared by using 50 mL monobasic potassium phosphate solution 0.2 M in a 200-mL volumetric flask and adding 39.1 mL of sodium hydroxide solution 0.2 M and then adding water to volume.
Standard solution is prepared by weighing in a standard compound (about 1 mg) into a flask and dissolved completely in a solution of acetonitrile/methanol (1:1; V/V).
The sample of the test compound (about 2-3 mg) is weighed into a Uniprep® syringeless filter (5 mL; 0.45 μm), the 2 mL of solvent is added and the mixture is agitated for 24 hours at 37° C. The suspension is filtered after 24 hours and the concentration of dissolved substance is determined by HPLC. The result is stated as >x μg/mL, calculated from the sample weight taken and the volume of solvent used
Eluent A: Ultrapure water/Formic acid GR for analysis (999:1, V/V) Eluent B: Acetonitrile/Formic acid GR for analysis (999:1, V/V)
The result is determined quantitatively based on the external standard method through integration of the peak areas with reference to the figures obtained for the standard substance.
L[μg/mL]=a(A)*c(S)*F(A)/a(S)*F(S) Calculation: • a (A)=peak area for analyte/mL • a (S)=peak area for standard/mL • c (S)=concentration of standard (μg/mL) • F (A)=dilution factor for analyte • F (S)=dilution factor for standard

[2] = biological target: T1, Human recombinant His-tagged PFKFB3 (Homo sapiens, UniProt Q16875); assay: PFKFB3 IC50 determination assay (modified ADP-Glo in vitro kinase assay); assay type: biochemical; details: human recombinant PFKFB3 25 nM, ATP 20 μM, fructose-6-phosphate 2 μM, 2 h, rt; read-out: PFKFB IC50
T1 construct: His; made in house
T1 sequence (Q16875 whole entry): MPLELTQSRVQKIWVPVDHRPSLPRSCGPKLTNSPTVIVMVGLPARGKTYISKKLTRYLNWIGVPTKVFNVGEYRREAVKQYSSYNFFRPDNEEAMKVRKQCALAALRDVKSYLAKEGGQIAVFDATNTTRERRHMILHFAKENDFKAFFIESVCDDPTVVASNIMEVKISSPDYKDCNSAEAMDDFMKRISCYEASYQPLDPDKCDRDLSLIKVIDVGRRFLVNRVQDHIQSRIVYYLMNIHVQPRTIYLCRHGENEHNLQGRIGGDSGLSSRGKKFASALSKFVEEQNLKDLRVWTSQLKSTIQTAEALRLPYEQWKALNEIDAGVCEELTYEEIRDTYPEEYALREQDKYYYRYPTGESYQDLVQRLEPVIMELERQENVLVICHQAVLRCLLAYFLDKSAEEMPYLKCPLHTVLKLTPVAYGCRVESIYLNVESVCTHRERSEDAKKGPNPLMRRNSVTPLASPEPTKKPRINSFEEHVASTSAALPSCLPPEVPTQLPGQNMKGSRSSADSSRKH
Procedure: In vitro kinase assay used to determine IC50 values for tested inhibitors is based on a modified ADP-Glo™ system (Promega) and consists of two parts:
1. Kinase reaction—performed in optimized conditions. At this step PFKFB3 phosphorylates its substrate fructose-6-phosphate using ATP as a source of phosphate to produce fructose-2,6-bisphosphate and ADP. Reaction is performed at Km values for ATP and substrate using optimized buffer composition and time of the reaction. Human recombinant His-tagged PFKFB3 (PFKFB3 BATCH II SEC) with confirmed activity is produced and purified in-house. 2. Detection of ADP as a product of the reaction using ADP-Glo™ system. This part is conducted by using the commercially available kit ADP-Glo™ Kinase Assay (Promega, cat. No# V9103) according to manufacturer's instruction, modified by 5× dilutions of assay reagents (both ADP-Glo™ Reagent and Kinase Detection Solution). Reproducibility and reliability of this modification is confirmed in an optimization process.
Test compounds are dissolved in DMSO and then transferred to the V-bottom 96-well plate. For IC50 determination ten 10× serial dilutions starting from 100 μM are prepared.
Two mixes are prepared on ice: Mix 1—containing appropriate kinase amount in 2× reaction buffer (100 mM TRIS pH 8.0) and Mix 2—containing 2.31× concentrated substrate (Fructose-6-phosphate) and ATP in MilliQ water. 15 μL per well of Mix 1 is transferred to assay wells of 96-well white plate. Next, 2 μl of 15× concentrated test compound in DMSO is added to Mix 1 for 20 min pre-incubation, followed by addition of Mix 2 (13 μl/well). Total reaction volume is 30 μL per well. Samples are tested in duplicates. Final concentration of DMSO in the reaction is 6.7%. Conditions needed for performing PFKFB3 (PFKFB3 BATCH II SEC) in vitro kinase assay are given below:
This protocol is based on Technical Bulletin, ADP-Glo™ Kinase Assay (Promega) and is adapted to 96-well plate containing 30 μL reaction mixture:
30 μL of 5× diluted ADP-Glo™ Reagent is added to each well of 96-well plate containing 30 μL of reaction mixture. The plate is incubated for 90 minutes on a shaker at rt. 60 μL of 5× diluted Kinase Detection Solution is added to each well of 96-well plate containing 60 μL of the solution (ratio of kinase reaction volume to ADP-Glo™ Reagent volume to Kinase Detection Solution volume is maintained at 1:1:2). Plate is incubated for 40 minutes on a shaker at rt, protected from light. Luminescence is measured in the plate reader Synergy 2 (BioTek).
Luminescent readouts for compounds tested in 10 concentrations (routinely from 100 μM to […], […] serial dilutions) in duplicates, as well as for positive control, are first normalized to no-substrate negative control by its subtraction. In the next step, % of normalized positive control is calculated for each data point and plotted against test compound concentration:
% of control—percent of positive control normalized to no-substrate negative control Lumcpd—luminescence of test compound Lumneg—luminescence of no-substrate negative control Lumpos—luminescence of positive control
IC50 parameter is determined by the GraphPad Prism 5.0 software [log(inhibitor) vs. response—Variable slope (four parameters)].

Compound | solubility at 24 h [1] [µg/mL] | IC50 [2] [nM]
Cn1cc([C@H](Nc2cc(-c3ccc4ccn(C)c4c3)c3nccnc3c2)c2cnnn2C)cn1 (single isomer, unassigned) [Example 8] | 80 (≈ 178 µM) | 5.2
Cn1ccc2ccc(-c3cc(NC(c4cccnc4)c4ccc(=O)[nH]n4)cc4nccnc34)cc21 (single isomer, unassigned) [Example 2] | 10 (≈ 21.8 µM) | 28
COc1ccc([C@@H](Nc2cc(-c3ccc4ccn(C)c4c3)c3nccnc3c2)c2cccnc2)nn1 (single isomer, unassigned) [Example 5] | 4 (≈ 8.45 µM) | 8
Cn1cc([C@H](Nc2cc(-c3ccc4ccn(C)c4c3)c3nccnc3c2)c2cncn2C)cn1 (single isomer, unassigned) [Example 11] | 4 (≈ 8.92 µM) | 14
COc1ccc([C@@H](Nc2cc(-c3ccc4ccn(C)c4c3)c3nccnc3c2)c2cccnc2)cn1 [Comparative Example 4, [(S)-(6-methoxy-pyridin-3-yl)-pyridin-3-yl-methyl]-[8-(1-methyl-1H-indol-6-yl)-quinoxalin-6-yl]-amine, reference compound] | 1 (≈ 2.12 µM) | 9.9
